These results are taken from patent publication US9809532B2, “Uses of histone acetyltransferase activators” (THE TRUSTEES OF COLUMBIA UNIVERSITY IN THE CITY OF NEW YORK, priority 2011, dated 2017).

Data set [1] deals with mouse model of Alzheimer's disease. Put plainly: Memory deficits in a mouse model of Alzheimer's disease. In kind it is in vivo.
The next data set concerns BDNF. As to the kind of experiment: BDNF levels in hippocampi of Aβ-infused mice. Format: in vivo. The settings on record: for hippocampal BDNF levels after Aβ infusion: 20 mg/kg, i.p., 90 min before harvesting, Aβ-infused mice. From the text: 3(1): p. 12-29; Caccamo, A., et al., CBP gene transfer increases BDNF levels and ameliorates learning and memory deficits in a mouse model of Alzheimer's disease. Proc Natl Acad Sci USA, 2010. 107(52): p. 22687-92; each herein incorporated by reference in its entirety). […] The Journal of Neuroscience: The Official Journal of the Society for Neuroscience, 2007. 27(10): p. 2628-35; each herein incorporated by reference in its entirety). Thus, preliminary studies on Compound 1 efficacy were extended to BDNF. BDNF levels in the hippocampi of Aβ-infused mice were measured compared to vehicle infused animals. Consistent with the decrease in BDNF levels in brains of AD patients and animal models of AD, a reduction of BDNF levels following Aβ infusion was found (FIG. 23).

Another data set has as its system mice. Put plainly: Sensory threshold assessment. Format: in vivo. The settings on record: vs vehicle, 5 mg/kg (FIG. 19). The procedure:
To evaluate contextual fear learning, freezing was measured for 5 min (consecutively) in the chamber in which the mice was trained 24 hr after training. To evaluate cued fear learning, following contextual testing, the mice were placed in a novel context (triangular cage with smooth flat floor) for 2 min (pre-CS test), after which they were exposed to the CS for 3 min (CS test), and freezing was measured. Sensory perception of the shock was determined through threshold assessment. A sequence of single foot shocks was delivered to animals placed on the same electrified grid used for fear conditioning. Initially, a […] shock was delivered for 1 sec, and the animal behavior was evaluated for flinching, jumping, and vocalization. At 30 sec intervals the shock intensity was increased by […] and then returned to 0 mV in […] increments at 30 sec intervals. Threshold to vocalization, flinching, and then jumping was quantified for each animal by averaging the shock intensity at which each animal manifests a behavioral response to the foot shock.

For another data set, the system named is wild-type mice. Put plainly: Contextual fear conditioning. The settings on record: for freezing 24 h after training: vs WT vehicle mice, single tone pairing with 0.35 mA foot shock. In kind it is in vivo. The procedure:
Contextual fear conditioning was performed to assess whether compound 1 is capable of enhancing memory. This type of cognitive test is much faster than other behavioral tasks that require multiple days of training and testing (J Clin Invest, 2004. 114(11): 1624-34; herein incorporated by reference in its entirety). The conditioning chamber was in a sound-attenuating box. A clear Plexiglas window allowed the experimenter to film the mouse performance with a camera placed on a tripod and connected to the Freezeframe software (MED Ass. Inc.). To provide background white noise (72 dB), a single computer fan was installed in one of the sides of the sound-attenuating chamber. […] The floor was removable, and after each experimental subject, it was cleaned with 75% ethanol and then with water. Only one animal at a time was present in the experimentation […].
[…] The mice remained in the chamber for an additional 30 sec after the end of the last pairing, after which they were returned to their home cages. Contextual fear conditioning was assayed 24 hr after training by replacing the animals in the conditioning context for a 5 min period, during which the incidence of freezing (immobile except for respiration) was recorded. […]
Freezing behavior, defined as the absence of all movement except for that necessitated by breathing, was scored using the Freezeview software.
To evaluate contextual fear learning, freezing was measured for 5 min (consecutively) in the chamber in which the mice was trained 24 hr after training. To evaluate cued fear learning, following contextual testing, the mice were placed in a novel context (triangular cage with smooth flat floor) for 2 min (pre-CS test), after which they were exposed to the CS for 3 min (CS test), and freezing was measured. Sensory perception of the shock was determined through threshold assessment. […] Initially, a […] shock was delivered for 1 sec, and the animal behavior was evaluated for flinching, jumping, and vocalization. […]

Another data set deals with human PCAF (Homo sapiens, UniProt Q92831). Put plainly: PCAF activation, in vitro assay. In kind it is biochemical.
Data set [2] has as its system histone lysines H3K4, H3K9, H3K14, H4K5, H4K8, H4K12, H4K16, and H2B. Put plainly: Histone acetylation in mouse hippocampus (WB analysis). Format: in vivo. As to conditions: for acetylation of histone lysines (H3, H4, H2B) in hippocampus: 20 mg/Kg i.p., 30 min, FIG. 22. As for the experimental part: The compound was i.p. administered at 20 mg/Kg, mice were sacrificed 30 min later, and hippocampi were removed and quickly frozen for WB analysis.

A further data set has as its target HDAC5FL (Homo sapiens, UniProt Q9UQL6). As to the kind of experiment: HDAC5FL activity assay (fluorescence).
Data set [3] can be described thus: Acute toxicity experiments. As to conditions: i.p. In kind it is in vivo.

Values joined by “and” are separate entries in the source; they are usually repeats but may differ in a detail not shown here. Identical values can stand only once.

As usually defined, the EC50 is the concentration at which the effect is half-maximal. The low end stands for higher potency in that assay, the high end for lower potency in that assay. As a reminder, the IC50 is the concentration that inhibits the measured activity by half.

Sequence of HDAC5FL (Q9UQL6 whole entry): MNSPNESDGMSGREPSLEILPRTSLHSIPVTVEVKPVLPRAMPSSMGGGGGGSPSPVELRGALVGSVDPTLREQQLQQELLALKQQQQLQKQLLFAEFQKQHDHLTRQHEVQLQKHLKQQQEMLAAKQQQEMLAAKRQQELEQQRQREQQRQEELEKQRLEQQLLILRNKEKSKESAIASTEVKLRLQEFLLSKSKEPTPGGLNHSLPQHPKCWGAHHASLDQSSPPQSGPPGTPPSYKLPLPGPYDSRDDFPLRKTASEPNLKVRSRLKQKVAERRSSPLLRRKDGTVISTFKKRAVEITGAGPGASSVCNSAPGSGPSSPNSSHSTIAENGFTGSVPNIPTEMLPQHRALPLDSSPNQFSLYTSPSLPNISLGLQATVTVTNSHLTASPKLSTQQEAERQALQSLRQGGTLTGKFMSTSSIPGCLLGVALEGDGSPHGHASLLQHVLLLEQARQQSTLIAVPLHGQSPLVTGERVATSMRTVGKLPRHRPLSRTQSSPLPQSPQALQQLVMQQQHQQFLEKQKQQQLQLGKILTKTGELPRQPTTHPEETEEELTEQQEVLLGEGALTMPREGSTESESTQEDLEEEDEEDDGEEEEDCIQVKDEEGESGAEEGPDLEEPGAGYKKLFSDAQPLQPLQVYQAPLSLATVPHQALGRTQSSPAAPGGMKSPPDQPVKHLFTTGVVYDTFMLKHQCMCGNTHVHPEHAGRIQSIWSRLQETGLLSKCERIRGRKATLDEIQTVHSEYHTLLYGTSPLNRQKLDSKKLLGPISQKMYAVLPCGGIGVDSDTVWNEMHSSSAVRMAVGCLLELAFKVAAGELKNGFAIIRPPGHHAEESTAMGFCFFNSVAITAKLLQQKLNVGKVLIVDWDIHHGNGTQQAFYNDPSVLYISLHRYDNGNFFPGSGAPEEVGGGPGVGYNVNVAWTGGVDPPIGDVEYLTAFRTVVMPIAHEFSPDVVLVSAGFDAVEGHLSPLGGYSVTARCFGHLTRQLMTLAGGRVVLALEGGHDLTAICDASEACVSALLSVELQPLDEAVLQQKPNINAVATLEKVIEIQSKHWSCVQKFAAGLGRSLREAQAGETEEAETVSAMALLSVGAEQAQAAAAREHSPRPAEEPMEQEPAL
Sequence of human PCAF (Q92831 whole entry): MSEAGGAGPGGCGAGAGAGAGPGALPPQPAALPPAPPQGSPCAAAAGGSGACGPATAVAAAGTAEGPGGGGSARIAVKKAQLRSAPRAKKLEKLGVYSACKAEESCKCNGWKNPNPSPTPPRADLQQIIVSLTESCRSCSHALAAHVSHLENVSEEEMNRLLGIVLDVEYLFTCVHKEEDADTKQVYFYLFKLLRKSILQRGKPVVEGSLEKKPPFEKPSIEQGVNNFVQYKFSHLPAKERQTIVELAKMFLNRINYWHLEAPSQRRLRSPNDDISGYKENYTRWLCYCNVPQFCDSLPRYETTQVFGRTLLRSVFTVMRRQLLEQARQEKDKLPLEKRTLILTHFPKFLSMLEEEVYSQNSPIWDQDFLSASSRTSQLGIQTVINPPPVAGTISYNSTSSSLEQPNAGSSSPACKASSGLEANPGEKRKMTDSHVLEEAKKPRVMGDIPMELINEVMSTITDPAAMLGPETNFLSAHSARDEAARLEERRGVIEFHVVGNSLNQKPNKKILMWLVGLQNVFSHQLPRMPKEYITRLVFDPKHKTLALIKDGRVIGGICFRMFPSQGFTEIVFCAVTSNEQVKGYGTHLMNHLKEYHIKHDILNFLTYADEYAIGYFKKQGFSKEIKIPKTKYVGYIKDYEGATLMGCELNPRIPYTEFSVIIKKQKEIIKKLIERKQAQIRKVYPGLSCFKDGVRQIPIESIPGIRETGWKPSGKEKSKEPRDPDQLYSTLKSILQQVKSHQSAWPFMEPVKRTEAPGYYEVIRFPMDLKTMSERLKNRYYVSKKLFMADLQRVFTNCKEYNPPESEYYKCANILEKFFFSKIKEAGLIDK

`CCOc1cccc(OCCN(C)C)c1C(=O)Nc1ccc(Cl)c(C(F)(F)F)c1` [Compound 1]: the memory deficits entry in data set [1] was “ameliorate memory deficits”. The “hippocampal BDNF levels after Aβ infusion” value with BDNF was “rescued”; in the data set on BDNF (listed as YF2), “rescued Aβ-induced decrease in hippocampal BDNF levels”. The “hippocampal BDNF levels” value in the data set on BDNF (vehicle-infused mice) is listed as “increased BDNF levels”. In addition, the sensory threshold entry with mice is “no difference was observed”. Further, the “freezing 24 h after training” value in the data set on wild-type mice (5 mg/kg) and in the data set with wild-type mice (20 mg/kg) was “froze nearly twice as often” throughout. For the same compound, the memory effect result in the data set on wild-type mice (weaker training protocol) was “worked as a memory enhancer”. For the same compound, the EC50 at human PCAF is 29 µM and 18.1 µM. In addition, the “acetylation of histone lysines (H3, H4, H2B) in hippocampus” value in data set [2] was “increased acetylation of histone lysines”; in data set [2] (listed as YF2), “increased specific acetylation of H3, H4, and H2B”. Besides, the “crossing of the BBB” value in data set [2] (i.p., western blot, FIG. 21) is reported as “crosses the BBB”. Besides, the “histone 3 acetylation levels of the hippocampus” value in data set [2] (i.p., western blot, FIG. 21) is reported as “increases histone 3 acetylation levels”. The IC50 at HDAC5FL was more than 200 µM. Further, the “% Activity (HDAC5FL)” value at HDAC5FL (Compound 1 Log [nM] 3.0, Repeat1/Repeat2) amounted to 99.80%. Besides, the “dose without any adverse effects, acute toxicity” value in data set [3] was “up to 300 mg/kg”.
